Measured values from ChEMBL document CHEMBL4130480, “Serinolamides and Lyngbyabellins from an Okeania sp. Cyanobacterium Collected from the Red Sea” (J Nat Prod, 2017).
Calls of active or inactive are those of the source. The calls are words filed in the database; no cut-off is given here.

What was measured:
MCF7 = assay: Growth inhibition of human MCF7 cells after 72 hrs by MTT assay; type: functional; details: MCF7, 72 h
Amphibalanus amphitrite = assay: Antifouling activity against cypris stage of Amphibalanus amphitrite larvae assessed as inhibition of larval settlement at < 1 ug/ml after 48 to 120 hrs by microscopic analysis; type: functional, organism-based
NCI-H460 = assay: Growth inhibition of human H460 cells after 72 hrs by MTT assay; type: functional; details: NCI-H460, 72 h
N2a = assay: Growth inhibition of mouse Neuro2a cells after 72 hrs by MTT assay; type: functional

SMILES | GI50 (MCF7) [µM] | inhibition (Amphibalanus amphitrite) | GI50 (NCI-H460) [µM] | GI50 (N2a) [µM]
CCCC(=O)N[C@@H](CC(C)C)[C@H](O)CC(=O)OC[C@@H](O)c1nc(C(=O)O[C@@H](CCCC(C)(Cl)Cl)[C@H](C)C(=O)O[C@H](c2nc(C(=O)OC)cs2)C(C)(C)O)cs1 | 9 | – | – | –
CCCCCCCCCCCCC/C=C(\C)C(=O)N[C@@H](CO)COC | – | Active | – | –
C[C@@H]1C(=O)O[C@@H](C(C)(C)O)c2nc(cs2)C(=O)OC[C@@H](O)c2nc(cs2)C(=O)O[C@H]1CCCC(C)(Cl)Cl | 120 | – | 2.2 | 4.8
CCCCCCCCCCCCC/C=C(\C)C(=O)N[C@H](COC)COC(C)=O | – | Active | – | –
COC(=O)c1csc([C@@H](OC(=O)[C@@H](C)[C@H](CCCC(C)(Cl)Cl)OC(=O)c2csc([C@H](O)CO)n2)C(C)(C)O)n1 | > 160 | – | – | –
